In patent US20180086817A1, “Preventing, Treating or Arresting Alzheimer's, Stroke, Cardiovascular and other Amyloid Related Diseases” (priority 2016, published 2018):

Key:
L68Q cystatin C = target: T1, L68Q cystatin C (Homo sapiens, UniProt P01034, L94Q); experiment: Preliminary trial of N-acetylcysteine in HCCAA patients expressing L68Q cystatin C, with biopsy; type: in vivo
T1 construct: confirmed by genetic screen to express L68Q cystatin C; from tissue; host or cells: HCCAA patients; biopsy (tissue not given)
T1 sequence (P01034 27-146 L94Q): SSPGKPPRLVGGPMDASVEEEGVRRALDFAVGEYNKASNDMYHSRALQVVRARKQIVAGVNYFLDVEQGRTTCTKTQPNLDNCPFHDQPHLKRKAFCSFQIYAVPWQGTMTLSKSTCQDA
Experimental: For an early test of effectiveness of glutathione supportive therapy in the treatment of HCCAA and similar disease involving plaque formation, human trials are planned using accepted and previously approved therapeutic interventions. Initial trials involve n-acetylcysteine based on its chemistry and historical acceptance in human therapies. Doses ranging from as low as 200 mg/day, but at least in the early trials, at higher levels to emphasize effect have been proposed with initial regulatory approvals in high risk HCCAA patients.
Three persons who had been identified through characteristic HCCAA symptoms confirmed by genetic screen to express L68Q cystatin C agreed to participate in a preliminary trial with a prototype drug to support antioxidant and other effects of GSH. N-acetylcysteine was used as a GSH-support/anti-cystatin-C-polymerization archetypical drug for conceptual proof and support of the hypotheses supporting this invention. […] One patient fully complied with the prescribed protocol. Two patients were only partially compliant. The fully compliant patient presented with a 50% reduction in plaques observed on biopsy.
Treatments are continuing, augmented by confirmatory/advisory biopsies. Biopsy intervals may be approximately weekly, but longer intervals are envisioned as sufficient to monitor effects and dosages and to encourage compliance in testing and treatment maintenance. For example, biopsy intervals may be weekly, biweekly, monthly, bimonthly, quarterly, semi-annual, annual, etc. Biopsy appointments may be used both for treatment/disease monitoring, but also to maintain patient attention and interaction. Medical advisory panels and insurance issues may also be considered in determining the frequency and type(s) of biopsies.

cellular glutathione = conditions: cited from earlier work

disease course (L68Q cystatin C; all three HCCAA patients (L68Q cystatin C), one fully and two partially compliant)	reduction in plaques observed on biopsy (L68Q cystatin C; fully compliant patient)	aggregated protein previously observed (L68Q cystatin C; one of the partially compliant patients)	disease course (L68Q cystatin C; remaining non-compliant patient)	Compound	effect on glutathione over time (cellular glutathione; 25 mg/kg OTC in conjunction with 800 mg/day glutathione IM)	time by which effect wanes in plasma (cellular glutathione; dose of about 22-65 mg/kg, post administration)	cellular glutathione (cellular glutathione; dose of about 22-65 mg/kg, shortly after administration)
disease arrest	50%	significant reduction	disease arrest	CC(=O)N[C@@H](CS)C(=O)O [N-acetylcysteine]			
				O=C1N[C@H](C(=O)O)CS1 [OTC, L-2-oxothiazolidine-4-carboxolate]	continued effect	≤ 8 h	double
